According to the supplement of paper PMC10307832:

Assays:
Experiment in all cases: relative viability (nuclei count vs DMSO), 5 days (fraction); higher = more cells survive
[1] = test system: NCI-H1666
Summary of the method: (§1)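 Lung cancer cell lines in 1536-well plates got either a single drug or a fixed anchor-drug dose together with five library-drug doses (not always all listed) in √10 steps, by pin tool, on the day after seeding. Nuclei were counted after 5 days, and relative viability is the treated-to-vehicle ratio of nuclei counts. Values are medians of duplicate plates.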

[2] = test system: ChaGo-K-1
Summary of the method: as §1

[3] = test system: HCC-15
Summary of the method: as §1

[4] = test system: LC-2-ad
Summary of the method: as §1

[5] = test system: NCI-H661
Summary of the method: as §1

[6] = test system: NCI-H1651
Summary of the method: as §1

[7] = test system: UMC-11
Summary of the method: as §1

[8] = test system: NCI-H650
Summary of the method: as §1

[9] = test system: LU99A
Summary of the method: as §1

[10] = test system: LXF-289
Summary of the method: as §1

[11] = test system: SK-MES-1
Summary of the method: as §1

[12] = test system: NCI-H322M
Summary of the method: as §1

[13] = test system: NCI-H1944
Summary of the method: as §1

[14] = test system: NCI-H2342
Summary of the method: as §1

[15] = test system: PC-3 [JPC-3]
Summary of the method: as §1

[16] = test system: H3255
Summary of the method: as §1

[17] = test system: LK-2
Summary of the method: as §1

[18] = test system: LCLC-97TM1
Summary of the method: as §1

[19] = test system: NCI-H838
Summary of the method: as §1

[20] = test system: NCI-H596
Summary of the method: as §1

[21] = test system: HCC-78
Summary of the method: as §1

[22] = test system: NCI-H2087
Summary of the method: as §1

[23] = test system: NCI-H358
Summary of the method: as §1

[24] = test system: BEN
Summary of the method: as §1

CC(C)Oc1cc(Nc2nc(N[C@@H](C)c3ccc(F)cn3)ncc2Cl)n[nH]1 [AZ23] + Cc1nc(Nc2ncc(C(=O)Nc3c(C)cccc3Cl)s2)cc(N2CCN(CCO)CC2)n1 [Dasatinib] (partner 0.075 µM)
relative viability ([1]; first compound 0.01 µM): 0.891 | relative viability ([1]; first compound 0.03162 µM): 0.927 | relative viability ([1]; first compound 0.3162 µM): 0.809 | relative viability ([2]; first compound 0.01 µM): 0.687 | relative viability ([2]; first compound 0.03162 µM): 0.627 | relative viability ([2]; first compound 0.3162 µM): 0.566 | relative viability ([3]; first compound 0.01 µM): 0.642 | relative viability ([3]; first compound 0.03162 µM): 0.712 | relative viability ([3]; first compound 0.3162 µM): 0.575 | relative viability ([4]; first compound 0.01 µM): 0.569 | relative viability ([4]; first compound 0.03162 µM): 0.588 | relative viability ([4]; first compound 0.3162 µM): 0.564 | relative viability ([5]; first compound 0.01 µM): 0.948 | relative viability ([5]; first compound 0.03162 µM): 1.02 | relative viability ([5]; first compound 0.3162 µM): 0.847 | relative viability ([6]; first compound 0.03162 µM): 0.471 | relative viability ([6]; first compound 0.3162 µM): 0.386 | relative viability ([7]; first compound 0.01 µM): 0.593 | relative viability ([7]; first compound 0.03162 µM): 0.504 | relative viability ([7]; first compound 0.3162 µM): 0.481 | relative viability ([8]; first compound 0.01 µM): 0.441 | relative viability ([8]; first compound 0.03162 µM): 0.46 | relative viability ([8]; first compound 0.3162 µM): 0.48 | relative viability ([9]; first compound 0.01 µM): 0.623 | relative viability ([9]; first compound 0.03162 µM): 0.646 | relative viability ([9]; first compound 0.3162 µM): 0.369 | relative viability ([10]; first compound 0.01 µM): 0.205 | relative viability ([10]; first compound 0.03162 µM): 0.275 | relative viability ([10]; first compound 0.3162 µM): 0.189 | relative viability ([11]; first compound 0.03162 µM): 0.275 | relative viability ([11]; first compound 0.3162 µM): 0.288 | relative viability ([12]; first compound 0.03162 µM): 0.255 | relative viability ([12]; first compound 0.3162 µM): 0.256 | relative viability ([13]; first compound 0.01 µM): 0.198 | relative viability ([13]; first compound 0.03162 µM): 0.246 | relative viability ([13]; first compound 0.3162 µM): 0.208 | relative viability ([14]; first compound 0.01 µM): 0.299 | relative viability ([14]; first compound 0.03162 µM): 0.31 | relative viability ([14]; first compound 0.3162 µM): 0.339 | relative viability ([15]; first compound 0.01 µM): 1.13 | relative viability ([15]; first compound 0.03162 µM): 1.08 | relative viability ([15]; first compound 0.3162 µM): 1.01 | relative viability ([16]; first compound 0.01 µM): 0.364 | relative viability ([16]; first compound 0.03162 µM): 0.66 | relative viability ([16]; first compound 0.3162 µM): 0.418 | relative viability ([17]; first compound 0.01 µM): 0.262 | relative viability ([17]; first compound 0.03162 µM): 0.286 | relative viability ([17]; first compound 0.3162 µM): 0.335 | relative viability ([18]; first compound 0.01 µM): 0.924 | relative viability ([18]; first compound 0.03162 µM): 0.889 | relative viability ([18]; first compound 0.3162 µM): 0.829 | relative viability ([19]; first compound 0.01 µM): 0.255 | relative viability ([19]; first compound 0.03162 µM): 0.317 | relative viability ([19]; first compound 0.3162 µM): 0.293 | relative viability ([20]; first compound 0.01 µM): 0.52 | relative viability ([20]; first compound 0.03162 µM): 0.616 | relative viability ([20]; first compound 0.3162 µM): 0.557 | relative viability ([21]; first compound 0.01 µM): 0.323 | relative viability ([21]; first compound 0.03162 µM): 0.381 | relative viability ([21]; first compound 0.3162 µM): 0.328 | relative viability ([22]; first compound 0.01 µM): 1.29 | relative viability ([22]; first compound 0.03162 µM): 1.04 | relative viability ([22]; first compound 0.3162 µM): 0.751 | relative viability ([23]; first compound 0.01 µM): 0.144 | relative viability ([23]; first compound 0.03162 µM): 0.161 | relative viability ([23]; first compound 0.3162 µM): 0.123 | relative viability ([24]; first compound 0.01 µM): 0.309 | relative viability ([24]; first compound 0.03162 µM): 0.398 | relative viability ([24]; first compound 0.3162 µM): 0.304
